# Data reported in article PMC12067741, “Inhibition of SOD1 trimerization is a novel drug target for ALS disease” (Translational Neurodegeneration, 2025).
# Columns and labels:
# [1] = test system: WT-SOD1 (Azurite, mCherry2) and MT (G93A)-SOD1 (GFP); test: Co-inclusion of three colour variants of SOD1 in SK-N-SH cells; type: cell-based; conditions: PRG-A-04 5 μmol/L, 24 h
# Method: Cells with SOD1 aggregation were counted in the fluorescent images. Depending on the intensity of SOD1, cells with SOD1 aggregates were counted in randomly selected fields and quantified as a percentage to the total cells counted. In addition, to calculate the colocalization of the three colors of SOD1, we counted the cells where the three colored images overlapped at a point of high intensity. Cell counting was performed by three independent observers, who were blinded to the transfection or chemical treatment group.
# Fig. 2 PRG-A-04 suppresses SOD1 aggregation through targeting trimeric SOD1. a-b SOD1 trimer destabilizer inhibited MT-SOD1 aggregation. (a) SOD1 (GFP) expression was observed under fluorescence microscope (white arrows; strong intensity of SOD1). Scale bar, 10 μm. EV, empty vector. (b) SOD1 inclusion-positive cells (white arrows; strong intensity of SOD1) were counted and the percentages are shown as mean ± SD. c PRG-A-04 reduced SOD1 oligomerization induced by SOD1 trimer stabilizer (G147P). d-g PRG-A-04 directly bound to the mutant form of SOD1. […] (g) For quantitative analysis, the number of PRG-A-04 molecules per 100 SOD1 molecules was counted. […] (i) Cells with WT and MT-SOD1 co-inclusions were counted and the percentages are shown as mean ± SD. For cell counting, five fluorescence images were randomly selected. […]
# CYP2C19 = CYP2C19 (Homo sapiens, UniProt P33261)
# Description: (§1) Fig. S8. Preclinical data of PRG-A-04 a Plasma protein binding b CYP inhibition(direct) […]
# (§2) d Mouse Brain Tissue penetration
# (§3) For the convenience of calculation, […]
# CYP 2D6 = CYP 2D6 (Homo sapiens, UniProt P10635)
# Description: as §1, §2, §3
# CYP 2C9 = CYP 2C9 (Homo sapiens, UniProt P11712)
# Description: as §1, §2, §3
# CYP 2C8 = CYP 2C8 (Homo sapiens, UniProt P10632)
# Description: as §1, §2, §3
# CYP 2B6 = CYP 2B6 (Homo sapiens, UniProt P20813)
# Description: as §1, §2, §3
# [2] = BBB-PAMPA (parallel artificial membrane permeability assay); conditions: PAMPA, 4 hour, 10 µM
# Description: Next, we checked the basic in vitro ADME test including pharmacokinetics, plasma protein binding, CYP (Cytochrome P450) inhibition, metabolic stability and blood–brain barrier (BBB) permeability. […] We also plan to test safety panel assay in the future to obtain safety data for the drug.
# Fig. S8. […]
# SOD1^G93A−Tg mice [3] = test: Efficacy of feeding combined with i.p. injection in SOD1G93A-Tg ALS mice; type: in vivo, mouse; conditions: daily feeding from 7 weeks plus i.p. twice weekly from 11 weeks; vehicle about 80%
# Method: Age-matched WT mice were tested as positive control. […] Mouse movement was recorded.
# Meier survival curve of SOD1G93A-Tg ALS mouse model.
# Lifespan of PRG-A-01 data was collected from
# SOD1G93A-Tg ALS mouse model.
# Plasma stability = type: in vitro ADME; conditions: cynomolgus monkey plasma, after 120 min of incubation
# SOD1^G93A−Tg mice [4] = test: Efficacy of oral (p.o., ASD) administration in SOD1G93A-Tg ALS mice
# Method: For mice with p.o. injection, the mice were trained for 2 weeks from the age of 7 weeks, and the rotarod test was performed from 9 weeks. Age-matched WT mice were tested as positive control. […] Mouse movement was recorded. The recorded video file was further analyzed using the EthoVision XT 15 software (Noldus, Wageningen, Netherlands).
# CYP 2B6, sequence (P20813 whole entry): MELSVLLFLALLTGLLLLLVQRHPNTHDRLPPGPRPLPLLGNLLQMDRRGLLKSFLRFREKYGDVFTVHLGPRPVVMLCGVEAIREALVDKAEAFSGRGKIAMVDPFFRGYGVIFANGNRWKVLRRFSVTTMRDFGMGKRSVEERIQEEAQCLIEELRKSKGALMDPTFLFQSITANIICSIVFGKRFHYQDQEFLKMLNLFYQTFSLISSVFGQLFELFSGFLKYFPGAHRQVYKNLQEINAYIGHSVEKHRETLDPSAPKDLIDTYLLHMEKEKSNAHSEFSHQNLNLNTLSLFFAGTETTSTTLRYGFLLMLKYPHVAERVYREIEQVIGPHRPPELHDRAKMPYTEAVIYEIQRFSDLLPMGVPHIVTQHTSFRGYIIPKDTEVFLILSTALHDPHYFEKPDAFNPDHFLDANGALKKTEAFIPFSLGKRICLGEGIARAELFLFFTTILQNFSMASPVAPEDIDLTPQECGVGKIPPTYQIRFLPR
# CYP 2C9, sequence (P11712 whole entry): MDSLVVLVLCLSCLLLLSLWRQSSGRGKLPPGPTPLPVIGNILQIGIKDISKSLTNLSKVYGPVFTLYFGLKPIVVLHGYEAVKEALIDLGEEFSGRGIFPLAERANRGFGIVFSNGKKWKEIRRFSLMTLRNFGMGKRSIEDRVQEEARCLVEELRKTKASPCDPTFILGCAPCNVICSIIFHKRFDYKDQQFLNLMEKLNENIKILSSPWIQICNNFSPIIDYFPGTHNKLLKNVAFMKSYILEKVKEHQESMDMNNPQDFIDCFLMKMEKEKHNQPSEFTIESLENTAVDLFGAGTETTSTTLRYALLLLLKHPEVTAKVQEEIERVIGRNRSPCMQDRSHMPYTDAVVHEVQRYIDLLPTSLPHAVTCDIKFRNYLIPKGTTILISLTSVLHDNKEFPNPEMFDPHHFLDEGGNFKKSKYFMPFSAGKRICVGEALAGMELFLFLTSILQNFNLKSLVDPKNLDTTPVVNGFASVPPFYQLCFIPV
# CYP 2C8, sequence (P10632 whole entry): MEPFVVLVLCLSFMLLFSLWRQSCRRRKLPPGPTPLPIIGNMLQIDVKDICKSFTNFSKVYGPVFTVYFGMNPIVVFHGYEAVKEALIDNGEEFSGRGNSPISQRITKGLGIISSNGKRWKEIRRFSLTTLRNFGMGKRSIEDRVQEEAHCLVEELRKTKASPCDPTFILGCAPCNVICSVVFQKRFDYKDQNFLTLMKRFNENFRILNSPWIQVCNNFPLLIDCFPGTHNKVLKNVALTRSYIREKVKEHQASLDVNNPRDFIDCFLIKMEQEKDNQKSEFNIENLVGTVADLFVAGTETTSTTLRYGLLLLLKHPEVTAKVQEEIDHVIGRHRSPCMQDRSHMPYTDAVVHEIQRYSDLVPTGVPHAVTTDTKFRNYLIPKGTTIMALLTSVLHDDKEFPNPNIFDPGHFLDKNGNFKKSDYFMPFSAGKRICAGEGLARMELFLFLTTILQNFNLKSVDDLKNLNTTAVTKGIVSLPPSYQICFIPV
# CYP 2D6, sequence (P10635 whole entry): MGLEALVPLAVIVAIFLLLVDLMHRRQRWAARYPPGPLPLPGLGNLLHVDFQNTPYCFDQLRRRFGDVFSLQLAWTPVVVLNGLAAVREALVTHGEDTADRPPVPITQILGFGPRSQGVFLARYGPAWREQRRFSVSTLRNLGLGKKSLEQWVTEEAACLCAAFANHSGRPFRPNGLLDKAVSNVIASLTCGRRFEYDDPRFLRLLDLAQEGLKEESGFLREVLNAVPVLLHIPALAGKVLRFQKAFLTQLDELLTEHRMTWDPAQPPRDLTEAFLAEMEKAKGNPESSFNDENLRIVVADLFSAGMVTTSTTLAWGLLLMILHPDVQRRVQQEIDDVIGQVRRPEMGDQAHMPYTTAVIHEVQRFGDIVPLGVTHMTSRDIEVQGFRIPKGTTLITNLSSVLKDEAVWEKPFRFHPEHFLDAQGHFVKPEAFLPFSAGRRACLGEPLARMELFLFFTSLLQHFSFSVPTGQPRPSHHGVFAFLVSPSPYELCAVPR
# CYP2C19, sequence (P33261 whole entry): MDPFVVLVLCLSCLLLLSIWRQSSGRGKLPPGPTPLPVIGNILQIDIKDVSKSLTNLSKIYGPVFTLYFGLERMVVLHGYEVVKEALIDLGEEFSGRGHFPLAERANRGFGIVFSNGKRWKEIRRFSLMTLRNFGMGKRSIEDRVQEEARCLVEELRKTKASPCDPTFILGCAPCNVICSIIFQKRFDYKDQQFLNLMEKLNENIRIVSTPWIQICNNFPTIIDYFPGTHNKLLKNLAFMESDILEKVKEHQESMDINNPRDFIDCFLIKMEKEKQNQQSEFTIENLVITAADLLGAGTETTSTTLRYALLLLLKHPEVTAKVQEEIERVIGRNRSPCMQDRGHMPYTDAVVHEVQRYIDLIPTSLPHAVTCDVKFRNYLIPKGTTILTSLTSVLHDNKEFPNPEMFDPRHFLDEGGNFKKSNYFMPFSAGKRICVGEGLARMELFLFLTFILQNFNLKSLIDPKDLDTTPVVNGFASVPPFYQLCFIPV
compound,measurement,setting,value
COc1cc(C=CCOC2Cc3cc4ccc(=O)oc4cc3OC2(C)C)ccc1[N+](=O)[O-] (stereo not drawn) [PRG-A-04],co-inclusion of WT and MT-SOD1,[1],disappeared
same,IC50,CYP2C19,4.75 µM
same,IC50,CYP 2D6,> 10 µM
same,IC50,CYP 2C9,> 10 µM
same,IC50,CYP 2C8,> 10 µM
same,IC50,CYP 2B6,> 10 µM
same,Mean Pe,[2],4.18 nm/s
same,reduction of motility (rotarod latency) at 18 weeks,SOD1^G93A−Tg mice [3],50%
same,stability in plasma,Plasma stability,stable
same,extension of lifespan of ALS mice,SOD1^G93A−Tg mice [4]; oral administration,up to 3 weeks
same,toxicity on oral administration,SOD1^G93A−Tg mice [4]; p.o. twice a week from 9 weeks,without toxicity
same,reduction of movement (rotarod latency) at 17 weeks,"SOD1^G93A−Tg mice [4]; p.o. twice a week from 9 weeks, dose not stated, vehicle about 73%",45%
